Assay results reported in ChEMBL document CHEMBL3853329, “1,2,4-Triazolyl 5-Azaspiro[2.4]heptanes: Lead Identification and Early Lead Optimization of a New Series of Potent and Selective Dopamine D3 Receptor Antagonists” (J Med Chem, 2016).

What was measured:
[1] = in vivo; conditions: rat, po, 5 mg/kg
[2] = in vivo; conditions: rat, whole blood, iv, 1 mg/kg
[3] = in vivo; conditions: rat, iv, 1 mg/kg
[4] = in vivo; conditions: rat
[5] = in vivo; conditions: rat, po, 5 mg/kg; remark: listed apart in the source
[6] = in vivo; conditions: rat, brain
[7] = in vitro; conditions: rat, liver microsomes
[8] = in vitro; conditions: human, liver microsomes
[9] = human, caco-2

Fa [1] [%] | clearance [2] [mL/min/kg] | Vd [3] [L/kg] | half-life [4] [min] | bioavailability [5] [%] | Kp [6] | microsomal CLint at 0.5 h, 0.5 µM [7] [µL/min/mg] | microsomal CLint at 0.5 h, 0.5 µM [8] [µL/min/mg] | permeability [9] | SMILES
54 | 21.1 | 5.5 | 258 | 39 | 1.5 | 38 | 299 |  | Cc1nc(C(N)=O)ccc1-c1nnc(SCCCN2CC[C@]3(C[C@@H]3c3ccc(C(F)(F)F)cc3)C2)n1C
 |  |  |  |  |  | 103 | 80 |  | Cc1ncccc1-c1nnc(SCCCN2CC[C@]3(C[C@@H]3c3ccc(C(F)(F)F)cc3)C2)n1C
17 | 30.2 | 4 | 114 | 10 | 0.4 | 16 | 41 | Permeable | Cn1c(SCCCN2CC[C@]3(C[C@@H]3c3ccc(C(F)(F)F)cc3)C2)nnc1-c1ccc(=O)n(C)c1
 |  |  |  |  |  | 276 | 352 |  | Cn1c(SCCCN2CC[C@]3(C[C@@H]3c3ccc(C(F)(F)F)cc3)C2)nnc1-c1ccc(-c2ncco2)cc1
 |  |  |  |  |  | 51 | 65 |  | Cc1ncoc1-c1nnc(SCCCN2CC[C@]3(C[C@H]3c3ccc(F)cc3C(F)(F)F)C2)n1C (single isomer, unassigned; enantiomer 1)
57 | 87.3 | 3.7 | 36 | 11 | 0.3 | 59 | 34 | Permeable | Cn1c(SCCCN2CC[C@]3(C[C@@H]3c3ccc(C(F)(F)F)cc3)C2)nnc1C1CCOCC1
 |  |  |  |  |  | 278 | 485 |  | Cn1c(SCCCN2CC[C@]3(C[C@@H]3c3ccc(C(F)(F)F)cc3F)C2)nnc1-c1cccnc1
 |  |  |  |  |  | 41 | 155 |  | Cn1c(SCCCN2CC[C@]3(C[C@@H]3c3ccc(C(F)(F)F)cc3)C2)nnc1-c1ccc(C(N)=O)cc1
 |  |  |  |  |  | 98 | 299 |  | Cc1ccc(-c2nnc(SCCCN3CC[C@]4(C[C@@H]4c4ccc(C(F)(F)F)cc4)C3)n2C)c(C)n1
 |  |  |  |  |  | 100 | 447 |  | Cn1c(SCCCN2CC[C@]3(C[C@@H]3c3ccc(C(F)(F)F)cc3)C2)nnc1-c1cccc(-c2ncco2)c1
 |  |  |  |  |  | 161 | 22 |  | Cc1ncoc1-c1nnc(SCCCN2CC[C@]3(C[C@H]3c3ccc(C(F)(F)F)cc3)C2)n1C
 |  |  |  |  |  | 151 | 320 |  | Cc1ncoc1-c1nnc(SCCCN2CC[C@@]3(C[C@H]3c3ccc(F)cc3C(F)(F)F)C2)n1C (single isomer, unassigned; enantiomer 2)
 |  |  |  |  |  | 83 | 86 |  | Cc1ncoc1-c1nnc(SCCCN2CC[C@]3(C[C@@H]3c3ccc(C(F)(F)F)cc3)C2)n1C
 |  |  |  |  |  | < 11 | 25 |  | Cn1c(SCCCN2CC[C@]3(C[C@@H]3c3ccc(C(F)(F)F)cc3)C2)nnc1C1CCNC(=O)C1 (single isomer, unassigned)
 |  |  |  |  |  | 201 | 339 |  | Cn1c(SCCCN2CC[C@]3(C[C@@H]3c3ccc(C(F)(F)F)cc3)C2)nnc1C1CCCCC1
 | 80 | 2.6 |  |  |  | 21.3 | 50 |  | Cn1c(SCCCN2CC[C@]3(C[C@@H]3c3ccc(C(F)(F)F)cc3)C2)nnc1C1CC2CCC(C1)O2 (single isomer, unassigned; enantiomer 1)
 |  |  |  |  |  | 161 | 53 |  | Cc1ncoc1-c1nnc(SCCCN2CC[C@@]3(C[C@H]3c3ccc(F)cc3F)C2)n1C
 |  |  |  |  |  | 22 | 58 |  | Cn1c(SCCCN2CC[C@]3(C[C@@H]3c3ccc(C(F)(F)F)cc3)C2)nnc1-c1ccc(CC(N)=O)cc1
 |  |  |  |  |  | 92 | 187 |  | Cn1c(SCCCN2CC[C@]3(C[C@@H]3c3ccc(C(F)(F)F)cc3)C2)nnc1-c1cccc(C(N)=O)c1
40 | 19.4 | 3.2 | 132 | 26 |  | 29 | 106 |  | Cn1c(SCCCN2CC[C@]3(C[C@@H]3c3ccc(C(F)(F)F)cc3)C2)nnc1-c1ccc(C(N)=O)nc1
1 | 48 | 9.1 | 204 | 2 |  | 14 | 28 | Impermeable | Cn1c(SCCCN2CC[C@]3(C[C@@H]3c3ccc(C(F)(F)F)cc3)C2)nnc1C1=CCC(=O)N=C1 (stereo in doubt)

SMILES | Fa [1] [%] | clearance [2] [mL/min/kg] | Vd [3] [L/kg] | half-life [4] [min] | bioavailability [5] [%] | Kp [6] | microsomal CLint at 0.5 h, 0.5 µM [7] [µL/min/mg] | microsomal CLint at 0.5 h, 0.5 µM [8] [µL/min/mg] | permeability [9]
Cc1ncoc1-c1nnc(SCCCN2CC[C@@]3(C[C@H]3c3ccc(F)cc3)C2)n1C |  |  |  |  |  |  | 73 | 37 | 
